Laboratory results as given in patent EP1100481B1, “PHARMACEUTICAL FORMULATIONS COMPRISING BECLOMETHASONE DIPROPIONATE FOR THE TREATMENT OF INFLAMMATORY BOWEL DISEASE” (CHIESI FARMACEUTICI S.p.A., priority 1998, dated 2000).

Assay: Pharmacokinetic-scintigraphic study of systemic absorption
Assay type: in vivo
Conditions: healthy volunteers
Procedure: The disintegration behavior of the tablets was also evaluated in vivo, at the intestinal site, in a study carried out on 8 healthy volunteers. A scintigraphic technique was employed as it is suitable for evaluating the position and integrity of the tablet within the gastrointestinal tract (Steed K.P. et al. Int J Pharmaceutics 1994; 112:199-206). […] These findings confirmed that the modified-relase tablets of the invention meet the requirements considered necessary for a formulation designed for the topical treatment of inflammatory bowel disease.

SMILES: CCC(=O)OCC(=O)[C@@]1(OC(=O)CC)[C@@H](C)C[C@H]2[C@@H]3CCC4=CC(=O)C=C[C@]4(C)[C@@]3(Cl)[C@@H](O)C[C@@]21C [BDP, beclomethasone dipropionate]
- systemic absorption of unmetabolised BDP and/or of its metabolites: absence of systemic absorption
